Laboratory results taken from patent publication US9833423B2 (KOREA RESEARCH INSTITUTE OF CHEMICAL TECHNOLOGY, priority 2011, dated 2017).
Converted amounts (≈) assume the structure as drawn. Read-outs that look alike come from different tables or passages of the source.

Columns and labels:
in vitro = conditions: human
Coxsackie-virus B1 = assay: Cytopathic effect (CPE) inhibition assay; type: cell-based, Coxsackievirus B1; conditions: Enterovirus B, HeLa37, 48 h, HeLa, 37° C., 2 days
Coxsackie-virus B3 = assay: Cytopathic effect (CPE) inhibition assay; type: cell-based, Coxsackievirus B3; conditions: Enterovirus B, HeLa37, 48 h, HeLa, 37° C., 2 days
Coxsackie-virus A24 (HG) = assay: Cytopathic effect (CPE) inhibition assay; type: cell-based, Coxsackievirus A24; conditions: Enterovirus C, MRC5, 48 h; Table 3; MRC-5, 37° C., 2 days
Polio-virus 3 = assay: microbe, parasite or virus in culture; type: cell-based, Poliovirus 3; conditions: Enterovirus C, HeLa37, 48 h, read-out: Polio-virus 3 EC50
Entero-virus 70 = assay: Cytopathic effect (CPE) inhibition assay; type: cell-based, Enterovirus 70; conditions: Enterovirus D, MRC5, 48 h; Table 3; MRC-5, 37° C., 2 days
[1] = Table 4, read-out: Coxsackie-virus B1 EC50
[2] = Table 4, read-out: Coxsackie-virus B3 EC50
[3] = Table 3, read-out: EC50 Coxsackie-virus B1
[4] = Table 3, read-out: EC50 Coxsackie-virus B3

SMILES	CC50 (in vitro; Picorna-virus CC50) [µg/mL]	EC50 (Coxsackie-virus B1; [1]) [µg/mL]	EC50 (Coxsackie-virus B3; [2]) [µg/mL]	further results
CCCCCCC(=O)NC1(c2ccc(C(C)C)cc2OC(=O)CCCCCC)C(=O)c2cccc(N)c2C1=O (stereo not drawn) [Example 83, 2-(4-Amino-2-heptanamido-1,3-dioxo-2,3-dihydro-1H-inden-2-yl)-5-isopropylphenyl heptanoate]	> 100	< 0.01	< 0.01	
CC(C)C(=O)Nc1cc(C(C)C)ccc1C1(O)C(=O)c2ccccc2C1=O [Example 95, N-(2-(2-Hydroxy-1,3-dioxo-2,3-dihydro-1H-inden-2-yl)-5-isopropylphenyl)isobutyramide]	27.4 (≈ 75.1 µM)	< 0.01	< 0.01	
COC(=O)NC1(c2ccc(C(C)C)cc2OC(=O)OC)C(=O)c2ccccc2C1=O [Example 48, Methyl 2-(4-isopropyl-2(methoxycarbonyloxy)phenyl)-1,3-dioxo-2,3-dihydro-1H-inden-2-yl carbamate]				CC50 (in vitro; CC50): 46.7 µg/mL (≈ 114 µM); EC50 (Coxsackie-virus B1; [3]): < 0.01 µg/mL; EC50 (Coxsackie-virus B3; [4]): < 0.01 µg/mL
CC(C)c1ccc(C2(NC(=O)c3ccccc3)C(=O)c3ccccc3C2=O)c(OC(=O)c2ccccc2)c1 [Example 70, 2-(2-Benzamido-1,3-dioxo-2,3-dihydro-1H-inden-2-yl)-5-isopropylphenyl benzoate]				CC50 (in vitro; CC50): > 117 µg/mL; EC50 (Coxsackie-virus A24 (HG)): < 1 µg/mL; EC50 (Coxsackie-virus B1; [3]): < 0.01 µg/mL; melting point: 138 to 140 °C; EC50 (Coxsackie-virus B3; [4]): < 0.01 µg/mL
CCCCCC(=O)NC1(c2ccc(C(C)C)cc2OC(=O)CCCCC)C(=O)c2cccc(N)c2C1=O (stereo not drawn) [Example 82, 2-(4-Amino-2-hexanamido-1,3-dioxo-2,3-dihydro-1H-inden-2-yl)-5-isopropylphenyl hexanoate]	> 100	< 0.01	< 0.02	EC50 (Polio-virus 3): 0.015 µg/mL (≈ 0.0296 µM)
CCOC(=O)N(C(C)=O)C1(c2ccc(C(C)C)cc2O)C(=O)c2ccccc2C1=O [Example 102, Ethyl acetyl(2-(2-hydroxy-4-isopropylphenyl)-1,3-dioxo-2,3-dihydro-1H-inden-2-yl)carbamate]	42.5 (≈ 104 µM)	< 0.01	< 0.01	
CCCCC(=O)NC1(c2ccc(C(C)C)cc2OC(=O)C(C)(C)C)C(=O)c2ccccc2C1=O [Example 80, 2,2-Dimethyl-propionic acid 2-(1,3-dioxo-2-pentanoylamino-indan-2-yl)-5-isopropyl-phenyl ester]	> 100	< 0.01	< 0.01	
CC(C)c1ccc(C2(OC(=O)c3ccccc3)C(=O)c3ccccc3C2=O)c(O)c1 [Example 23, 2-(2-Hydroxy-4-isopropylphenyl)-1,3-dioxo-2,3-dihydro-1H-inden-2-yl benzoate]				CC50 (in vitro; CC50): 44.3 µg/mL (≈ 111 µM); EC50 (Coxsackie-virus B1; [3]): < 0.01 µg/mL; melting point: 117 to 119 °C
COC(=O)Oc1cc(C(C)C)ccc1C1(NC(C)=O)C(=O)c2ccccc2C1=O [Example 92, 2-(2-Acetamido-1,3-dioxo-2,3-dihydro-1H-inden-2-yl)-5-isopropylphenyl methyl carbonate]	43.6 (≈ 110 µM)	< 0.01	< 0.01	
CC(=O)Oc1cc(Cl)ccc1C1(OC(C)=O)C(=O)c2ccccc2C1=O [Example 3, 2-(2-Acetoxy-1,3-dioxo-2,3-dihydro-1H-inden-2-yl)-5-chlorophenyl acetate]				CC50 (in vitro; CC50): 50.7 µg/mL; EC50 (Entero-virus 70): 0.013 µg/mL; melting point: 148 to 150 °C
CCCC(=O)NC1(c2ccc(C(C)C)cc2OC(=O)CCC)C(=O)c2ccccc2C1=O [Example 76, Butyric acid 2-(2-butyrylamino-1,3-dioxo-indan-2-yl)-5-isopropyl-phenyl ester]	45.1 (≈ 104 µM)	< 0.01	< 0.04	
CCOC(=O)Oc1cc(C(C)C)ccc1C1(NC(C)=O)C(=O)c2ccccc2C1=O [Example 101, 2-(2-Acetamido-1,3-dioxo-2,3-dihydro-1H-inden-2-yl)-5-isopropylphenyl ethyl carbonate]	46 (≈ 112 µM)	< 0.01	< 0.01	
COc1cc(C(C)C)ccc1C1(NC(C)=O)C(=O)c2ccccc2C1=O [Example 54, N-(2-(4-Isopropyl-2-methoxyphenyl)-1,3-dioxo-2,3-dihydro-1H-inden-2-yl)acetamide]				CC50 (in vitro; CC50): > 117 µg/mL; EC50 (Coxsackie-virus B1; [3]): 0.0198 µg/mL (≈ 0.0563 µM); melting point: 222 to 224 °C
CCC(=O)NC1(c2ccc(C(C)C)cc2OC(=O)CC)C(=O)c2ccccc2C1=O [Example 68, 2-(1,3-Dioxo-2-propionamido-2,3-dihydro-1H-inden-2-yl)-5-isopropylphenyl propionate]				CC50 (in vitro; CC50): 66 µg/mL (≈ 162 µM); EC50 (Coxsackie-virus A24 (HG)): < 1 µg/mL; EC50 (Coxsackie-virus B1; [3]): < 0.01 µg/mL; melting point: 173 to 175 °C; EC50 (Coxsackie-virus B3; [4]): < 0.01 µg/mL
CCCCC(=O)NC1(c2ccc(C(C)C)cc2OC(=O)CCCC)C(=O)c2cccc(N)c2C1=O (stereo not drawn) [Example 81, 2-(4-amino-1,3-dioxo-2-pentanamido-2,3-dihydro-1H-inden-2-yl)-5-isopropylphenyl pentanoate]	41.3 (≈ 86.2 µM)	< 0.01	< 0.01	EC50 (Polio-virus 3): 0.012 µg/mL (≈ 0.0251 µM)
CC(=O)Nc1ccc([N+](=O)[O-])c2c1C(=O)C(O)(c1cc(C)c(C)cc1NC(=O)C(C)C)C2=O (stereo not drawn) [Example 94, N-(2-(4-Acetamido-2-hydroxy-7-nitro-1,3-dioxo-2,3-dihydro-1H-inden-2-yl)-4,5-dimethylphenyl)isobutyramide]	39.2 (≈ 86.4 µM)	< 0.01	< 0.01	
CCNC(=O)Oc1cc(C(C)C)ccc1C1(NC(C)=O)C(=O)c2cccc(N)c2C1=O (stereo not drawn) [Example 103, 2-(2-Acetamido-4-amino-1,3-dioxo-2,3-dihydro-1H-inden-2-yl)-5-isopropylphenyl ethylcarbamate]	26.3 (≈ 62 µM)	< 0.01	< 0.01	EC50 (Polio-virus 3): 0.013 µg/mL (≈ 0.0307 µM)
CCCC(=O)NC1(c2ccc(C(C)C)cc2OC(=O)CCC)C(=O)c2cccc(N)c2C1=O (stereo not drawn) [Example 85, 2-(4-Amino-2-butyramido-1,3-dioxo-2,3-dihydro-1H-inden-2-yl)-5-isopropylphenyl butyrate]	45.9 (≈ 102 µM)	< 0.01	< 0.03	EC50 (Polio-virus 3): 0.015 µg/mL (≈ 0.0333 µM)
CCCCCC(=O)NC1(c2ccc(C(C)C)cc2OC(=O)CCCCC)C(=O)c2ccccc2C1=O [Example 78, Hexanoic acid 2-(2-hexanoylamino-1,3-dioxo-indan-2-yl)-5-isopropyl-phenyl ester]	68.2 (≈ 139 µM)	< 0.01	< 0.01	
CCC(=O)NC1(c2ccc(C(C)C)cc2OC(=O)CC)C(=O)c2cccc(N)c2C1=O (stereo not drawn) [Example 84, 2-(4-Amino-1,3-dioxo-2-propionamido-2,3-dihydro-1H-inden-2-yl)-5-isopropylphenyl propionate]	> 100	< 0.01	< 0.01	
CCCCC(=O)Oc1cc(C(C)C)ccc1C1(NC(C)=O)C(=O)c2ccccc2C1=O [Example 93, 2-(2-Acetamido-1,3-dioxo-2,3-dihydro-1H-inden-2-yl)-5-isopropylphenyl pentanoate]	35.2 (≈ 83.5 µM)	< 0.01	< 0.01	
CC(=O)NC1(c2ccc(C(C)C)cc2OC(=O)Oc2ccccc2)C(=O)c2ccccc2C1=O [Example 99, Carbonic acid 2-(2-acetylamino-1,3-dioxo-indan-2-yl)-5-isopropyl-phenyl ester phenyl ester]	38.1 (≈ 83.2 µM)	< 0.01	< 0.01	
CCC(=O)Oc1cc(C(C)C)ccc1C1(OC(=O)CC)C(=O)c2ccccc2C1=O [Example 21, 2-(1,3-Dioxo-2-(propionyloxy)-2,3-dihydro-1H-inden-2-yl)-5-isopropylphenyl propionate]				CC50 (in vitro; CC50): 16 µg/mL (≈ 39.2 µM); EC50 (Coxsackie-virus B1; [3]): < 0.01 µg/mL; melting point: 123 to 125 °C
CCCCCCC(=O)NC1(c2ccc(C(C)C)cc2OC(=O)CCCCCC)C(=O)c2ccccc2C1=O [Example 79, Heptanoic acid 2-(2-heptanoylamino-1,3-dioxo-indan-2-yl)-5-isopropyl-phenyl ester]	8.94 (≈ 17.2 µM)	< 0.01	< 0.01	
CCCCOC(=O)Oc1cc(C(C)C)ccc1C1(NC(C)=O)C(=O)c2cccc(N)c2C1=O (stereo not drawn) [Example 96, 2-(2-Acetamido-4-amino-1,3-dioxo-2,3-dihydro-1H-inden-2-yl)-5-isopropylphenyl butyl carbonate2-(2-acetamido-4-amino-1,3-dioxo-2,3-dihydro-1H-inden-2-yl)-5-isopropylphenyl butyl carbonate]	48.9 (≈ 108 µM)	< 0.01	< 0.01	EC50 (Polio-virus 3): 0.03 µg/mL (≈ 0.0663 µM)
